In patent US7453009B2, “Hydroxybiphenyl carboxylic acids and derivatives, method for producing the same and their use” (Sanofi-Aventis Deutschland GmbH, priority 2004, dated 2008):

Biological target: T1, recombinant hPTP1B (phosphotyrosine phosphatase 1B) (Homo sapiens, UniProt P18031)
T1 construct: but without the carboxy-terminal hydrophobic region (corresponding to 1-299 aa); made in house; host or cells: Sf9 insect cells (baculovirus, Bac-to-Bac, pFASTBAC)
T1 sequence (P18031 1-299): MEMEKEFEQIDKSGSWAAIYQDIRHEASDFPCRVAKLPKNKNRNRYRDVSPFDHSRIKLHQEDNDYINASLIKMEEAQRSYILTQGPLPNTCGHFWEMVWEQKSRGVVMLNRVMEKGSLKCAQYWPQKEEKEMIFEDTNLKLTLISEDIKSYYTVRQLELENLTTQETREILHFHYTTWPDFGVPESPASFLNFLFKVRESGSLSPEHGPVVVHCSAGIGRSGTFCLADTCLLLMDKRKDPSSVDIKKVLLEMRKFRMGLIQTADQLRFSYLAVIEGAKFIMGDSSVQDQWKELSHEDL
Assay: Enzymatic test for inhibition of a phosphatase (phosphopeptide dephosphorylation / p-nitrophenyl phosphate cleavage)
Assay type: biochemical
Conditions: Table 3 Biological activity; inhibition of PTP1B; table does not say which substrate format (A phosphopeptide or B pNPP)
Experimental: Enzymatic Test Systems for Detecting Inhibition of a Phosphatase
The compounds of the formula I were tested for their phosphatase-inhibiting effect in an in vitro assay. The enzyme preparation and the performance of the assay was carried out as follows.
A) Cell Culture: • Sf9 cells (=Spodoptera frugiperda cell type; obtainable from invitrogen) are cultured in Grace's supplemented medium (Gibco-BRL) with 10% heat-inactivated fetal calf serum (Gibco-BRL) in spinner flasks at 28° C. in accordance with the protocol of Summers and Smith (A Manual for Methods for Baculovirus Vectors and Insect Culture Procedures [Bulletin No. 15555]. Texas A & M University, Texas Agricultural Experiment Station, College Station, Tex., 1987). • Construction of recombinant Baculovirus transfer vectors: cDNA coding for the regulatory and catalytic domains of human PTP1B, but without the carboxy-terminal hydrophobic region (corresponding to 1-299 aa) was obtained by polymerase chain reaction via primers with attached cloning sites and suitable cDNA templates (obtainable for example from invitrogen) and then cloned into baculovirus expression vectors (Amersham Pharmacia Biotech.). The recombinant baculoviruses were prepared with the aid of the Bac-to-Bac baculovirus expression system (obtainable from Gibco-BRL). The gene was cloned into the pFASTBAC donor plasmid (obtainable from Life Technologies). The resulting plasmid was transformed into competent DH10BAC Escherichia coli cells (obtainable from Life Technologies). After transposition and antibiotic selection, the recombinant plasmid DNA was isolated from selected E. coli colonies and then used for the transfection of Sf9 insect cells. The virus particle in the supernatant medium was amplified three times up to a viral stock volume of 500 ml.
B) Production of Recombinant Protein: • Baculovirus infection of a 500 ml spinner culture of Sf9 cells was essentially carried out as described by Summers and Smith (see above). Sf9 cells at a density of 1-3×10^6 cells/ml were pelleted by centrifugation at 300 g for 5 min, the supernatant was removed, and the cells were resuspended in a density of 1×10^7 cells/ml in a suitable recombinant viral stock (MOI 10). After careful shaking at room temperature for 1.5 h, fresh medium was added in order to achieve a cell density of 1×10^6 cells/ml. The cells were then cultured in the suspension at 28° C. for suitable periods after postinfection.
C) Cellular Fractionation and Complete Cell Extracts of Infected Sf9 Cells: • After the postinfection, aliquots were subjected to an analysis of protein expression by SDS-PAGE and Western blot analysis. The cellular fractionation was carried out as described (Cromlish, W. and Kennedy, B. Biochem. Pharmacol. 52: 1777-1785, 1996). Complete cell extracts were obtained from 1 ml aliquots of the infected Sf9 cells after certain times postinfection. The pelleted cells (300×g, 5 min) were washed once in phosphate-buffered saline (4° C.), resuspended in 50 μl of water and disrupted by repeated freezing/thawing. Protein concentrations were determined with the aid of the Bradford method and bovine serum albumin as standard.
A) Dephosphorylation of a Phosphopeptide: • This assay is based on the release of phosphate from a consensus substrate peptide which is detected in the nanomolar concentration range by the malachite green/ammonium molybdate method (Lanzetta, P. A., Alvarez, L. J., Reinach, P. S., Candia, O. A. Anal Biochem. 100: 95-97, 1979) adapted for the microtiter plate format. The dodecatrisphosphopeptide TRDIYETDYYRK (Biotrend, Cologne) corresponds to amino acids 1142-1153 of the catalytic domain of the insulin receptor and is (auto)phosphorylated on tyrosine residues 1146, 1150 and 1151. […]

IC50 [nM]	SMILES
1400	COc1cccc(C(=O)N(Cc2ccc(-c3ccc(O)c(C(=O)O)c3)cc2)Cc2ccccc2OC)c1 [Example 4, 4-Hydroxy-4′-{[(3-methoxybenzoyl)-(2-methoxybenzyl)amino]-methyl}biphenyl-3-carboxylic acid]
600	O=C(O)c1cc(-c2ccc(CN(Cc3ccccc3)C(=O)c3ccc(Br)cc3)cc2)ccc1O [Example 21, 4′-{[Benzyl-(4-bromobenzoyl)amino]methyl}-4-hydroxybiphenyl-3-carboxylic acid]
1600	Cc1ccc(CN(Cc2ccc(-c3ccc(O)c(C(=O)O)c3)cc2)C(=O)C2CCCCC2)cc1 [Example 10, 4′-{[Cyclohexanecarbonyl-(4-methylbenzyl)amino]methyl}-4-hydroxybiphenyl-3-carboxylic acid]
600	CCCCC(=O)N(Cc1ccc(OC)cc1)Cc1ccc(-c2ccc(O)c(C(=O)O)c2)cc1 [Example 24, 4-Hydroxy-4′-{[(4-methoxybenzyl)pentanoylamino]methyl}-biphenyl-3-carboxylic acid]
1500	CCCCCN(Cc1ccc(-c2ccc(O)c(C(=O)O)c2)cc1)C(=O)c1ccc2c(c1)OCO2 [Example 15, 4′-{[(Benzo[1,3]dioxole-5-carbonyl)pentylamino]methyl}-4-hydroxybiphenyl-3-carboxylic acid]
1200	COc1ccccc1CN(Cc1ccc(-c2ccc(O)c(C(=O)O)c2)cc1)C(=O)c1ccc(Br)cc1 [Example 1, 4′-{[(4-Bromobenzoyl)-(2-methoxybenzyl)amino]methyl}-4-hydroxybiphenyl-3-carboxylic acid]
1300	COc1ccccc1CN(Cc1ccc(-c2ccc(O)c(C(=O)O)c2)cc1)C(=O)C1CCCCC1 [Example 6, 4′-{[Cyclohexanecarbonyl-(2-methoxybenzyl)amino]methyl}-4-hydroxybiphenyl-3-carboxylic acid]
1200	COc1ccc(CN(Cc2ccc(-c3ccc(O)c(C(=O)O)c3)cc2)C(=O)c2ccc3c(c2)OCO3)cc1 [Example 2, 4′-{[(Benzo[1,3]dioxole-5-carbonyl)-(4-methoxybenzyl)amino]-methyl}-4-hydroxybiphenyl-3-carboxylic acid]
1900	CCCCC(=O)N(Cc1ccc(-c2ccc(O)c(C(=O)O)c2)cc1)CC1CC1 [Example 8, 4′-[(Cyclopropylmethylpentanoylamino)methyl]-4-hydroxybiphenyl-3-carboxylic acid]
1600	COc1cccc(C(=O)N(Cc2ccccc2)Cc2ccc(-c3ccc(O)c(C(=O)O)c3)cc2)c1 [Example 12, 4′-{[Benzyl-(3-methoxybenzoyl)amino]methyl}-4-hydroxybiphenyl-3-carboxylic acid]
1450	O=C(O)c1cc(-c2ccc(CN(Cc3ccc(F)cc3)C(=O)/C=C/c3ccccc3)cc2)ccc1O [Example 18, 4′-{[(4-Fluorobenzyl)-(3-phenylacryloyl)amino]methyl}-4-hydroxybiphenyl-3-carboxylic acid]
1900	O=C(O)c1cc(-c2ccc(CN(Cc3ccc(F)cc3)C(=O)c3ccc4c(c3)OCO4)cc2)ccc1O [Example 16, 4′-{[(Benzo[1,3]dioxole-5-carbonyl)-(4-fluorobenzyl)amino]methyl}-4-hydroxy-biphenyl-3-carboxylic acid]
1600	COc1cccc(C(=O)N(Cc2ccc(F)cc2)Cc2ccc(-c3ccc(O)c(C(=O)O)c3)cc2)c1 [Example 17, 4′-{[(4-Fluorobenzyl)-(3-methoxybenzoyl)amino]methyl}-4-hydroxybiphenyl-3-carboxylic acid]
1000	Cc1ccc(CN(Cc2ccc(-c3ccc(O)c(C(=O)O)c3)cc2)C(=O)c2ccc(Br)cc2)cc1 [Example 7, 4′-{[(4-Bromobenzoyl)-(4-methylbenzyl)amino]methyl}-4-hydroxybiphenyl-3-carboxylic acid]
500	O=C(O)c1cc(-c2ccc(CN(Cc3ccc(F)cc3)C(=O)c3ccc(Br)cc3)cc2)ccc1O [Example 23, 4′-{[(4-Bromobenzoyl)-(4-fluorobenzyl)amino]methyl}-4-hydroxybiphenyl-3-carboxylic acid]
1700	COc1cccc(C(=O)N(Cc2ccc(C)cc2)Cc2ccc(-c3ccc(O)c(C(=O)O)c3)cc2)c1 [Example 13, 4-Hydroxy-4′-{[(3-methoxybenzoyl)-(4-methylbenzyl)amino]methyl}-biphenyl-3-carboxylic acid]
1300	O=C(O)c1cc(-c2ccc(CN(Cc3ccccc3)C(=O)c3ccco3)cc2)ccc1O [Example 22, 4′-{[Benzyl(furan-2-carbonyl)amino]methyl}-4-hydroxybiphenyl-3-carboxylic acid]
1800	O=C(O)c1cc(-c2ccc(CN(C(=O)c3ccc4c(c3)OCO4)C3CCCC3)cc2)ccc1O [Example 20, 4′-{[(Benzo[1,3]dioxole-5-carbonyl)cyclopentylamino]methyl}-4-hydroxy-biphenyl-3-carboxylic acid]
1600	O=C(O)c1cc(-c2ccc(CN(CC3CC3)C(=O)C3CCCCC3)cc2)ccc1O [Example 5, 4′-[(Cyclohexanecarbonylcyclopropylmethylamino)methyl]-4-hydroxybiphenyl-3-carboxylic acid]
1280	Cc1ccc(CN(Cc2ccc(-c3ccc(O)c(C(=O)O)c3)cc2)C(=O)c2ccc3c(c2)OCO3)cc1 [Example 19, 4′-{[(Benzo[1,3]dioxole-5-carbonyl)-(4-methylbenzyl)amino]methyl}-4-hydroxy-biphenyl-3-carboxylic acid]
1600	O=C(O)c1cc(-c2ccc(CN(CCc3ccccc3)C(=O)c3ccc4c(c3)OCO4)cc2)ccc1O [Example 11, 4′-{[(Benzo[1,3]dioxole-5-carbonyl)phenethylamino]methyl}-4-hydroxybiphenyl-3-carboxylic acid]
1500	O=C(O)c1cc(-c2ccc(CN(Cc3ccccc3)C(=O)c3ccc4c(c3)OCO4)cc2)ccc1O [Example 3, 4′-{[(Benzo[1,3]dioxole-5-carbonyl)benzylamino]methyl}-4-hydroxybiphenyl-3-carboxylic acid]
1800	O=C(O)c1cc(-c2ccc(CN(CC3CC3)C(=O)c3ccc4c(c3)OCO4)cc2)ccc1O [Example 14, 4′-{[(Benzo[1,3]dioxole-5-carbonyl)cyclopropylmethylamino]methyl}-4-hydroxybiphenyl-3-carboxylic acid]
